# Earlier results in patent publication US20040047892A1, “Filler composition for soft tissue augmentation and reconstructive surgery” (priority 2003, published 2004).
substance,measurement,setting,value
collagen,time until the filler disappears,depending on the patient and site of injection,within a few months
same,share of the population allergic,in vivo,about 3%
